In patent US6066672A, “Amino compounds and angiotensin IV receptor agonists” (Taisho Pharmaceutical Co., Ltd., priority 1996, dated 2000):
Counter-ions that a name gives are not always drawn.

The compounds below were run against T1, angiotensin IV receptor (Cavia porcellus, UniProt H0VNM7) (assay: binding capability to angiotensin IV receptor, inhibition of 125I-angiotensin IV binding to guinea pig hippocampus membrane). Conditions: 0.2 nM 125I-angiotensin IV, Hartley guinea pig hippocampus crude membrane, 37° C., 90 minutes, pH 7.4.
T1 construct: The Hartley guinea pig hippocampus was homogenized in a 50 mM Tris hydrochloride buffer solution; from tissue; host or cells: Hartley guinea pig hippocampus, crude membrane (48,000 x g precipitate)
T1 sequence (H0VNM7 1-1025): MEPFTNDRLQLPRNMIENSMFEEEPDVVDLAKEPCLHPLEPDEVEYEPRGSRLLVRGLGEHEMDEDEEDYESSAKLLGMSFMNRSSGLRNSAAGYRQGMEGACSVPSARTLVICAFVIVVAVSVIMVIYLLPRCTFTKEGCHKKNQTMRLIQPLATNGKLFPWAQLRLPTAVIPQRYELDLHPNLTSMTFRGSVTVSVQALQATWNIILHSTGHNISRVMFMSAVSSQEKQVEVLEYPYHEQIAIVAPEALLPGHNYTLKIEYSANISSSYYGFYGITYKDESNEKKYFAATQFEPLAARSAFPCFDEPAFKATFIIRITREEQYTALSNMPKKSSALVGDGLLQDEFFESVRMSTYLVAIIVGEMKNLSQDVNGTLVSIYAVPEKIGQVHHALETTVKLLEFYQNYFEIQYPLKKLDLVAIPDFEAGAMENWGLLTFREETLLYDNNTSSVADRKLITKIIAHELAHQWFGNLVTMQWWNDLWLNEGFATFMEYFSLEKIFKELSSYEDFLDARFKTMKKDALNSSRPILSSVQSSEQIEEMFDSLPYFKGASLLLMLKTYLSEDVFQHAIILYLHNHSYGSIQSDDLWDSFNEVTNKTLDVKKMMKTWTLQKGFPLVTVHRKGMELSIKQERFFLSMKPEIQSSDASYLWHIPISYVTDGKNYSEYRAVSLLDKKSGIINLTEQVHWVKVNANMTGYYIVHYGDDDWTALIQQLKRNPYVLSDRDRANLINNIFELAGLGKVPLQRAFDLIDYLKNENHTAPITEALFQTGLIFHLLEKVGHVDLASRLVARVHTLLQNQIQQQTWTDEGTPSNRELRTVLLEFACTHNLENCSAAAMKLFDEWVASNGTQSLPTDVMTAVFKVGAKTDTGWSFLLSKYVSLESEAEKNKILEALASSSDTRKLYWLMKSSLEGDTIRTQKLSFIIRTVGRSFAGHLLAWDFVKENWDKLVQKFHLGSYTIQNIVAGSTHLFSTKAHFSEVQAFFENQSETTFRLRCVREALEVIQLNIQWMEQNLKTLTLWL
Procedure: The binding capability to angiotensin IV receptor was measured by using Hartley guinea pig hippocampus referring to the method described by Miller-Wing et al., J. Pharmacol. Exp. Ther., vol. 266, pp.1718 (1993). The Hartley guinea pig hippocampus was homogenized in a 50 mM Tris hydrochloride buffer solution (pH 7.4) containing 1 mM ethylenediamine-N,N,N',N'-tetraacetic acid (EDTA) and 100 μM phenylmethanesulfonyl fluoride (PMSF). After centrifugation at 900× g, the resulting supernatant was further centrifuged at 48,000× g. The precipitate was washed once with the same buffer solution and suspended in 50 mM Tris hydrochloride buffer solution (pH 7.4) containing 150 mM sodium chloride, 1 mM EDTA, 100 μM PMSF and 0.1% bovine serum albumin (BSA) to give a protein concentration of […] as a crude membrane specimen. […] The radioactivity on the filter paper was measured by using a gamma-counter. The non-specific bond was measured in the presence of 1 μM angiotensin IV, and the specific bond was calculated by subtracting the non-specific bond from the total bond.

| Structure (SMILES) | IC50 |
| --- | --- |
| CCCC[C@H](N)CN[C@@H](Cc1ccc(O)cc1)C(=O)N[C@H](CCc1ccc(C(=O)O)cc1)CC(C)C [Example 14, N'-[(S)-2-aminohexyl]-N-[(R)-3-methyl-1-[2-(4-carboxyphenyl)ethyl]butyl]-L-tyrosinamide dihydrochloride] | 26.6 nM |
| CCCC[C@H](N)CN[C@@H](Cc1ccc(O)cc1)C(=O)N[C@H](CCCc1ccccc1)CC(C)C [Example 6, N'-[(S)-2-aminohexyl]-N-[(R)-3-methyl-1-(3-phenylpropyl)butyl]-L-tyrosinamide dihydrochloride] | 18.3 nM |
| CCCC[C@H](N)CN[C@H](CN[C@H](C(=O)OC)[C@@H](C)CC)Cc1ccc(O)cc1 [Example 31, N-[(S)-2-[[(S)-2-aminohexyl]amino]-3-(4-hydroxyphenyl)propyl]-L-isoleucinemethyl ester trihydrochloride] | 32 nM |
| CCCC[C@H](N)CN[C@@H](Cc1ccc(O)cc1)C(=O)N[C@@H](CCc1ccncc1)CC(C)C [Example 10, N'-[(S)-2-aminohexyl]-N-[(S)-3-methyl-1-[2-(4-pyridyl)ethyl]butyl]-L-tyrosinamide trihydrochloride] | 81.1 nM |
| CCCC[C@H](N)CN[C@@H](Cc1ccc(O)cc1)C(=O)N[C@@H](/C=C/c1ccncc1)CC(C)C [Example 9, N'-[(S)-2-aminohexyl]-N-[(R)-(E)-1-(2-methylpropyl)-3-(4-pyridyl)-2-propenyl]-L-tyrosinamide trihydrochloride] | 22.1 nM |
| CCCC[C@H](N)CN[C@@H](Cc1ccc(O)cc1)C(=O)N[C@H](CCc1ccc(-c2ccccc2)cc1)CC(C)C [Example 22, N'-[(S)-2-aminohexyl]-N-[(R)-1-[2-([1,1'-biphenyl]-4-yl)ethyl]-3-methylbutyl]-L-tyrosinamide dihydrochloride] | 89 nM |
| CCCCC[C@@H](NC(=O)[C@H](Cc1ccc(O)cc1)NC[C@@H](N)CCCC)[C@@H](C)CC [Example 4, N'-[(S)-2-aminohexyl]-N-[(R)-1-[(S)-1-methylpropyl]hexyl]-L-tyrosinamide dihydrochloride] | 11.5 nM |
| CCCC[C@H](N)CN[C@@H](Cc1ccc(O)cc1)C(=O)N[C@H](CC)CC(C)C [Example 26, N'-[(S)-2-aminohexyl]-N-[(R)-1-ethyl-3-methylbutyl]-L-tyrosinamide dihydrochloride] | 38.5 nM |
| CCCC[C@H](N)CN[C@@H](Cc1ccc(O)cc1)C(=O)N[C@H](CCc1ccc(C(=O)OC)cc1)CC(C)C [Example 12, N'-[(S)-2-aminohexyl]-N-[(R)-1-[2-(4-methoxycarbonylphenyl)ethyl]-3-methylbutyl]-L-tyrosinamide dihydrochloride] | 35.1 nM |
| CCCC[C@H](N)C(=O)N[C@H](CN[C@H](CCc1ccccc1)CC(C)C)Cc1ccc(O)cc1 [Example 28, N-[1-[(S)-[(4-hydroxyphenyl)methyl]]-2-[[(R)-3-methyl-1-(2-phenylethyl)butyl]amino]ethyl]-L-norleucinamide dihydrochloride] | 299 nM |
| CCCC[C@H](N)C(=O)N[C@H](CN[C@H](/C=C/c1ccccc1)CC(C)C)Cc1ccc(O)cc1 [Example 27, N-[(S)-1-[(4-hydroxyphenyl)methyl]-2-[(S)-(E)-[1-(2-methylpropyl)-3-phenyl-2-propenyl]amino]ethyl]-L-norleucinamide dihydrochloride] | 328 nM |
| CCCC[C@H](N)CN[C@@H](Cc1ccc(O)cc1)C(=O)N[C@H](CCc1ccccc1)CC(C)C [Example 18, N'-[(S)-2-aminohexyl]-N-[(R)-3-methyl-1-[2-phenylethyl]butyl]-L-tyrosinamide dihydrochloride] | 8.7 nM |
| C=C[C@H](CC(C)C)NC(=O)[C@H](Cc1ccc(O)cc1)NC[C@@H](N)CCCC [Example 25, N'-[(S)-2-aminohexyl]-N-[(S)-1-(2-methylpropyl)-2-propenyl]-L-tyrosinamidedihydrochloride] | 89 nM |
| CCCC[C@H](N)CN[C@@H](Cc1ccc(O)cc1)C(=O)N[C@H](CCc1ccncc1)CC(C)C [Example 8, N'-[(S)-2-aminohexyl]-N-[(R)-3-methyl-1-[2-(4-pyridyl)ethyl]butyl]-L-tyrosinamide trihydrochloride] | 15.2 nM |

Now those with a lower IC50, led by results:

| IC50 | Structure (SMILES) |
| --- | --- |
| 0.65 nM | CCCC[C@H](N)CN[C@@H](Cc1ccc(O)cc1)C(=O)N[C@H](/C=C/c1ccccc1)CC(C)C [Example 17, N'-[(S)-2-aminohexyl]-N-[(S)-(E)-1-(2-methylpropyl)-3-phenyl-2-propenyl]-L-tyrosinamide dihydrochloride] |
| 1.79 nM | CCCC[C@H](N)CN[C@@H](Cc1ccc(O)cc1)C(=O)N[C@H](/C=C/c1ccc(C(=O)O)cc1)CC(C)C [Example 13, N'-[(S)-2-aminohexyl]-N-[(S)-(E)-3-(4-carboxyphenyl)-1-(2-methylpropyl)-2-propenyl]-L-tyrosinamide dihydrochloride] |
| 3.77 nM | CCCC[C@H](N)CN[C@@H](Cc1ccc(O)cc1)C(=O)N[C@H](CCc1ccc2ccccc2n1)CC(C)C [Example 24, N'-[(S)-2-aminohexyl]-N-[(R)-3-methyl-1-[2-(2-quinolyl)ethyl]butyl]-L-tyrosinamide dihydrochloride] |
| 4.13 nM | CCCC[C@H](N)CN[C@@H](Cc1ccc(O)cc1)C(=O)N[C@H](CCc1ccc(C)cc1)[C@@H](C)CC [Example 2, N'-[(S)-2-aminohexyl]-N-[(1R,2S)-2-methyl-1-[2-(4-methylphenyl)ethyl]butyl]-L-tyrosinamide dihydrochloride] |
| 0.53 nM | CCCC[C@H](N)CN[C@@H](Cc1ccc(O)cc1)C(=O)N[C@H](/C=C/c1ccc(Cl)cc1)CC(C)C [Example 19, N'-((S)-2-aminohexyl]-N-[(S)-(E)-3-(4-chlorophenyl)-1-(2-methylpropyl)-2-propenyl]-L-tyrosinamide dihydrochloride] |
| 7.22 nM | CCCC[C@H](N)CN[C@@H](Cc1ccc(O)cc1)C(=O)N[C@H](/C=C\Cc1ccccc1)CC(C)C [Example 5, N'-[(S)-2-aminohexyl]-N-[(S)-(Z)-1-(2-methylpropyl)-4-phenyl-2-butenyl]-L-tyrosinamide dihydrochloride] |
| 6 nM | CCCC[C@H](N)CN[C@@H](Cc1ccc(O)cc1)C(=O)N[C@H](/C=C/c1ccc(-c2ccccc2)cc1)CC(C)C [Example 21, N'-[(S)-2-aminohexyl]-N-[(S)-(E)-3-([1,1'-biphenyl]-4-yl)-1-(2-methylpropyl)-2-propenyl]-L-tyrosinamide dihydrochloride] |
| 3.76 nM | CCCC[C@H](N)CN[C@@H](Cc1ccc(O)cc1)C(=O)N[C@H](/C=C/c1cccc2ccccc12)CC(C)C [Example 15, N'-[(S)-2-aminohexyl]-N-[(S)-(E)-1-(2-methylpropyl)-3-(1-naphthyl)-2-propenyl]-L-tyrosinamide dihydrochloride] |
| 0.93 nM | CCCC[C@H](N)CN[C@@H](Cc1ccc(O)cc1)C(=O)N[C@H](/C=C/c1ccncc1)CC(C)C [Example 7, N'-[(S)-2-aminohexyl]-N-[(S)-(E)-1-(2-methylpropyl)-3-(4-pyridyl)-2-propenyl]-L-tyrosinamide trihydrochloride] |
| 0.59 nM | CCCC[C@H](N)CN[C@@H](Cc1ccc(O)cc1)C(=O)N[C@H](/C=C/c1ccc(C)cc1)[C@@H](C)CC [Example 1, N'-[(S)-2-aminohexyl]-N-[(S)-(E)-3-(4-methylphenyl)-1-[(S)-1-methylpropyl]-2-propenyl]-L-tyrosinamide dihydrochloride] |
| 0.53 nM | CCCC[C@H](N)CN[C@@H](Cc1ccc(O)cc1)C(=O)N[C@H](/C=C/c1ccc2ccccc2n1)CC(C)C [Example 23, N'-[(S)-2-aminohexyl]-N-[(S)-(E)-3-(2-quinolyl)-1-(2-methylpropyl)-2-propenyl]-L-tyrosinamide trihydrochloride] |
